# Measurements from article PMC10599528, “GPC-100, a novel CXCR4 antagonist, improves in vivo hematopoietic cell mobilization when combined with propranolol” (PLOS ONE, 2023).
# Read-outs that look alike come from different tables or passages of the source.
# B1: G-CSF: Granulocyte-colony stimulating factor; recombinant murine G-CSF in the mouse studies (protein, UniProt P09920 31-208, looked up)
# Granulocyte …: VPLVTVSALPPSLPLPRSFLLKSLEQVRKIQASGSVLLEQLCATYKLCHPEELVLLGHSLGIPKASLSGCSSQALQQTQCLSQLHSGLCLYQGLLQALSGISPALAPTLDLLQLDVANFATTIWQQMENLGVAPTVQPTQSAMPAFTSAFQRRAGGVLAISYLQGFLETARLALHHLA
# Key:
# circulating WBCs [1] = conditions: mice, 5 mg/kg SC; cited from earlier work
# MM.1S cells = experiment: CXCL12-induced transwell migration of MM.1S cells; conditions: Homo sapiens, MM1.S, 4 h, read-out: IC50, blockade of CXCL12-induced migration
# Description: (§1) Cells were allowed to migrate toward CXCL12 in the presence or absence of the antagonists for 4 h (MM.1S) or 24 h (U937) at 37°C. The migration of U937 cells was measured using PrestoBlue Cell Viability Reagent (Invitrogen). For MM.1S cell line, the migrated cells were counted by flow cytometry. The fluorescence intensity (560 nm/590 nm excitation/emission) was detected using a Varioskan LUX Multimode Microplate Reader.
# MM.1S (A) or U937 (B) cells were
# (§2) suspended in serum-free media containing 0.5% BSA at 5X106 cells/ml and 100 μl of cell
# (§3) suspension was added to transwell insert. SDF-1/CXCL12 at the indicated concentrations in 800
# (§4) μl of serum-free media containing 0.5% BSA was added to the lower chamber of the transwell.
# (§5) The transwell insert with 100 μl cell suspension was put on the lower chamber very carefully
# (U937) to allow cell migration.
# U937 cells = experiment: CXCL12-mediated transwell migration of U937 cells; conditions: Homo sapiens, U-937, 24 h, read-out: IC50, blockade of CXCL12-mediated migration
# Description: as §1
# MM.1S (A) or U937 (B) cells were
# as §2, §3, §4, §5
# (U937) to allow cell migration.
# CXCR4 and β2AR = experiment: Calcium flux in MDA-MB-231 cells endogenously expressing CXCR4 and β2AR, CXCL12 plus epinephrine; assay type: cell-based; conditions: 10 μM of each antagonist; 200 nM CXCL12, 10 μM epinephrine
# Description: MDA-MB-231 cells endogenously expressing CXCR4 and β2AR, or transduced with adenoviruses encoding CXCR4 for overexpression were used for calcium flux. Cells were cultured for 2 days prior to running the assay and seeded at 8×10^4 cells/well in a 96-well black clear-bottom microplate. The following day, cells were stained with Cal-520 AM (AAT Bioquest) for 2 h at 37°C and treated with antagonists for 30 min followed by agonist stimulation. Intracellular calcium flux was measured using a Flexstation 3 microplate reader (Molecular Devices).
# circulating WBCs [2] = experiment: In vivo WBC mobilization to peripheral blood (CBC analysis); set-up: species or system C57BL/6J mice
# Description: Studies were performed at a facility accredited by the Association for Assessment and Accreditation of Laboratory Animal Care and in strict accordance with the recommendations in the Guide for the Care and Use of Laboratory Animals of the National Institute of Health. […] C57BL/6J mice (female, 6–9 weeks old) were ordered from Jackson Laboratories and allowed to habituate for one week before handling. They were housed 5 per cage and had free access to food and water.
# Mice were monitored daily and weighed prior to drug administration. Based on the body weight data, mice were randomized into groups using the randomization tool in Benchling Studies randomization software. PB was collected by submental bleeding (non-terminal) or cardiac puncture (terminal). For terminal blood collections, mice were placed in an induction chamber with 2.5–4% isoflurane and then a maintenance dose of 2–3% through a nose cone. A toe pinch on all four quadrants was applied to confirm the surgical plane of anesthesia. Upon completion of terminal blood collection from cardiac puncture, the mice were euthanized via cervical dislocation while still under the effects of isoflurane. Approximately 25 μL blood was used for CBC analysis and the remaining blood was processed for flow cytometry or colony forming unit (CFU) assay. For non-terminal submental bleeding, a 4mm lancet was used to puncture the linguofacialis vein under the chin. […] For the time-course of mobilization, each mouse was bled twice. Submental bleeding was performed at 0.5 h, 1 h or 2 h after the respective dosing and cardiac puncture was performed at 3 h, 4 h and 6 h post-dose.
# Blood samples were processed for complete blood count (CBC) analysis using the Abaxis VetScan HM5 hematology analyzer (Abaxis), which reports 18-parameters including WBC, lymphocytes, neutrophils, monocytes, platelets, hemoglobin, RBC and morphology.
# CD34+ cells = conditions: at least; cited from earlier work
Molecule,time of peak mobilization (circulating WBCs [1]) [h],IC50 (MM.1S cells) [nM],IC50 (U937 cells) [nM],inhibition of synergistic calcium flux induced by CXCL12 and epinephrine (CXCR4 and β2AR),"increase in circulating WBCs compared to the vehicle (circulating WBCs [2]; 1 hour post-drug, GPC-100 30 mg/kg IV, AMD3100 5 mg/kg SC, single injection) [fold]","time of peak mobilization (circulating WBCs [2]; time-course 30 min to 6 hours post-drug, GPC-100 30 mg/kg IV, AMD3100 5 mg/kg SC) [h]",MM patients in whom an optimal number of HSC is not mobilized (CD34+ cells),"increase in WBC mobilization (circulating WBCs [2]; G-CSF 0.1 mg/kg SC BID days 2-6, propranolol 20 mg/kg IP 7 days, GPC-100 30 mg/kg IV or AMD3100 5 mg/kg SC day 7) [fold]"
c1cc(CN2CCCNCCNCCCNCC2)ccc1CN1CCCNCCNCCCNCC1 [AMD3100],1,80,42,partially inhibited,3,2,,
CC(C)NCC(O)COc1cccc2ccccc12 (stereo not drawn) [propranolol],,,,partially inhibited,,,,
B1,,,,,,,40–50%,4.5
